From ChEMBL document CHEMBL1800042, “Generation of 3,8-substituted 1,2,4-triazolopyridines as potent inhibitors of human 11β-hydroxysteroid dehydrogenase type 1 (11β-HSD-1)” (Bioorg Med Chem Lett, 2011)
≈ marks a conversion by molar mass, not a printed value.

Experiment: Solubility of the compound at pH 7.4
Type: physicochemical
Settings: buffer

solubility [µg/mL]	SMILES
1 (≈ 2.83 µM)	Cc1c(Cl)cccc1Oc1cccn2c(C34CCC(CC3)C4)nnc12
1 (≈ 2.59 µM)	Cc1c(Cl)cccc1Oc1cccn2c(C34CCC(F)(CC3)CC4)nnc12
11 (≈ 28.7 µM)	Cc1c(Cl)cccc1Oc1cccn2c(C34CCC(O)(CC3)CC4)nnc12
